The results in this text go back to patent US10640556B2, “Anti amphiregulin antibodies, compositions comprising same and uses thereof” (Yeda Research and Development Co. Ltd., priority 2015, dated 2020).

The subject of experiment [1] is promoter region of TGF-alpha. The experiment is described as follows: TGF-alpha promoter luciferase reporter in MLS cells. The following applies: increasing concentrations of cisplatin, 24 hours. The class given is cell-based, human. The procedure: FIGS. 5C-5F illustrate that AREG, unlike HB-EGF and TGF-alpha, undergoes up-regulation in response to a chemotherapeutic agent. FIG. 5C is a graph illustrating results of MLS cells transfected with a luciferase reporter containing the promoter region of TGF-alpha. The luciferase activity derived from the Renilla luciferase was normalized to that derived from the firefly luciferase (co-transfection control). Twenty-four hours after transfection, increasing concentrations of cisplatin were added, and 24 hours later the cells were subjected to luciferase assays; FIG. 5D is a graph illustrating assessment of GAPDH promoter activity as described in FIG. 5C; FIG. 5E is a graph illustrating the results of MLS ovarian cancer cells exposed to increasing concentrations of cisplatin. Cells were assessed for the secretion of the indicated ligands using ELISA; and FIG. 5F is a graph illustrating assessment of the A549 lung cancer cell line analyzed as in FIG. 5E. […] Promoter activity was determined using the dual-luciferase reporter assay system according to the manufacturer's instructions (Promega). Renilla luciferase luminescence values were normalized to Firefly luminescence and quantified relative to control.
A general note: In a reporter assay the amount or activity of a reporter protein is the signal.

In another experiment the test system is Caspase-3. The experiment is described as follows: Caspase-3 cleavage immunoblot in OVCAR5 cells. The class given is cell-based, human. The following applies: cisplatin 5 μg/mL overnight as positive control. The procedure:
FIGS. 4A-4D illustrate that depletion of AREG expression inhibits tumorigenic growth of human ovarian cancer cells. FIG. 4A is a graph illustrating results of OVCAR5 ovarian cancer cells treated with lentiviral expression constructs, either a scrambled shRNA or an AREG-specific shRNA. Conditioned media were collected three days later and the levels of secreted AREG were assessed using ELISA; FIG. 4B is a graph illustrating the growth rates of shAREG or shControl OVCAR5 cells measured using the MTT assay. Shown are means±S.D. values of hexaplicates (*P<0.005, t-test); FIG. 4C is a photograph illustrating Caspase-3 cleavage as assessed using immunoblotting and OVCAR5 sub-lines stably expressing three different shAREGs, or shControl. The assay was performed either in full medium or under serum starvation. Overnight treatment with cisplatin (5 μg/mL) was used as a positive control. […] Female nude mice (6 weeks old; 10 per group) were inoculated subcutaneously with OVCAR5 ovarian cells (3×10^6 per animal) pre-treated with either a scrambled shRNA or the AREG-specific shRNA. Tumor volumes were measured as indicated. Data points are presented as mean volume±S.D. values (*P<0.005, t-test).
On the technique in general: Immunoblotting shows a protein as a band on a membrane.

Experiment [2] concerns promoter region of AREG. The experiment can be described thus: AREG promoter luciferase reporter in A549 cells. The class given is cell-based, human. The following applies: A549 lung cells, increasing concentrations of cisplatin, 48 hours. On the procedure: (§1) FIGS. 5A-5B illustrate transcriptional activation of the AREG promoter by cisplatin. FIG. 5A is a graph illustrating the results of MLS cells transfected with a luciferase reporter containing the promoter region of AREG. Luciferase activity derived from the Renilla luciferase, was determined and normalized to that derived from the firefly luciferase reporter. Twenty-four hours after transfection, increasing concentrations of cisplatin were added and 48 hours later the cells were subjected to luciferase assay; and FIG. 5B illustrates the results of A549 lung cancer cells treated as in FIG. 5A. Averages of triplicates and S.D. values (bars) are presented (*P<0.03, **P<0.01, t-test). For promoter reporter assays, MLS and A549 cells were co-transfected with a Renilla luciferase plasmid containing the promoter region of AREG, TGF-alpha, a positive control of promoter activity, namely GAPDH, or a random control vector R01 used as a negative control (SwitchGear Genomics). Additionally, the pGL3-Control vector containing Firefly luciferase (Promega) was transfected as a control for transfection efficiency. Promoter activity was determined using the dual-luciferase reporter assay system according to the manufacturer's instructions (Promega). Renilla luciferase luminescence values were normalized to Firefly luminescence and quantified relative to control.

For experiment [3], the system named is promoter region of AREG. The experiment can be described thus: AREG promoter luciferase reporter in MLS cells. The class given is cell-based, human. The following applies: MLS ovarian cells, increasing concentrations of cisplatin, 48 hours. The procedure:
as §1

The test system of a further experiment is MLS ovarian cancer cells. The experiment is described as follows: MLS ovarian tumor xenograft in nude mice. The following applies: MLS tumors, AR30 100 μg/mouse twice a week, cisplatin 5 mg/kg, FIG. 7B. The class given is in vivo. The procedure:
FIG. 7A, female nude mice (6 weeks old) were inoculated subcutaneously with MLS ovarian cancer cells (2×10^6 per animal). Once tumors became palpable, mice were randomized into two groups. Eleven mice were injected intraperitoneally with an anti-AREG mAb (AR30; 200 μg/mouse; twice a week, on days: 8, 11, 14, 17, and 21). The control group also included 11 mice. Shown are means±S.D. values; FIG. 7B, female nude mice (6 weeks old) were inoculated subcutaneously with MLS ovarian cancer cells (2×10^6 per animal). Once tumors became palpable, mice were randomized into four groups. One group (8 mice) was injected intraperitoneally with the AR30 mAb (100 μg/mouse twice a week, on days: 8, 14, 17, 21, 24 and 28). Another group (8 mice) was treated with cisplatin (5 mg/kg; on days 8 and 21). The fourth group was treated with a combination of mAb AR30 and cisplatin. The control group included 12 mice; and FIG. 7C, the indicated MLS tumors were excised, and their average weights determined. Representative tumors were photographed.
All animal procedures were approved by the Weizmann Institute of Science's review board. Female athymic NCr-nude mice (6 weeks old) were inoculated subcutaneously with 2×10^6 human ovarian MLS cancer cells. Once tumors became palpable (5-7 days), the mice were randomized into groups and injected intraperitoneally at the indicated time points with the indicated monoclonal antibodies, chemotherapy or the combination. Tumor volumes were monitored twice a week, and body weights were measured once a week.

Experiment [4] has as its system MLS ovarian cancer cells and A549 lung cancer cells. The experiment can be described thus: ELISA of ligand secretion by MLS and A549 cells. The class given is cell-based, human. The following applies: ovarian (MLS) and lung (A549) cancer cells exposed to cisplatin. The procedure:
FIGS. 5C-5F illustrate that AREG, unlike HB-EGF and TGF-alpha, undergoes up-regulation in response to a chemotherapeutic agent. FIG. 5C is a graph illustrating results of MLS cells transfected with a luciferase reporter containing the promoter region of TGF-alpha. The luciferase activity derived from the Renilla luciferase was normalized to that derived from the firefly luciferase (co-transfection control). Twenty-four hours after transfection, increasing concentrations of cisplatin were added, and 24 hours later the cells were subjected to luciferase assays; FIG. 5D is a graph illustrating assessment of GAPDH promoter activity as described in FIG. 5C; FIG. 5E is a graph illustrating the results of MLS ovarian cancer cells exposed to increasing concentrations of cisplatin. Cells were assessed for the secretion of the indicated ligands using ELISA; and FIG. 5F is a graph illustrating assessment of the A549 lung cancer cell line analyzed as in FIG. 5E. Human cancer cell lines were seeded in 10 cm plates, covered with medium (6 mL) and incubated for 4 days. The supernatants were collected and centrifuged at 1200 rpm for 5 minutes.

With `N.N.[Cl][Pt][Cl]` [cisplatin], the “TGF-alpha promoter reporter activity” value in experiment [1] was “no consistent, cisplatin-induced changes in TGF-alpha induction”. The Caspase-3 cleavage result in the experiment with Caspase-3 is reported as “cleaved only in cells incubated for 12 hours in the presence of cisplatin”. Moreover, the results for the “increase in AREG promoter reporter activity” value in the experiment with promoter region of AREG [2] and with promoter region of AREG [3] were 1.5 fold and 2 fold, respectively. The tumor growth entry in the experiment with MLS ovarian cancer cells is recorded as “only mildly inhibited”. Besides, the “secretion of EGF-family ligands to the medium” value in experiment [4] is listed as “increased secretion of AREG, not EGF, TGF-alpha or HB-EGF”.
